# Test results reported in paper PMC7055011 (Bioorganic & medicinal chemistry, 2019).
# Experiments:
# hAPJ = molecular target: T1, hAPJ (Homo sapiens, UniProt P35414); assay: Lance cAMP accumulation assay; type: cell-based
# T1 sequence (P35414 1-380): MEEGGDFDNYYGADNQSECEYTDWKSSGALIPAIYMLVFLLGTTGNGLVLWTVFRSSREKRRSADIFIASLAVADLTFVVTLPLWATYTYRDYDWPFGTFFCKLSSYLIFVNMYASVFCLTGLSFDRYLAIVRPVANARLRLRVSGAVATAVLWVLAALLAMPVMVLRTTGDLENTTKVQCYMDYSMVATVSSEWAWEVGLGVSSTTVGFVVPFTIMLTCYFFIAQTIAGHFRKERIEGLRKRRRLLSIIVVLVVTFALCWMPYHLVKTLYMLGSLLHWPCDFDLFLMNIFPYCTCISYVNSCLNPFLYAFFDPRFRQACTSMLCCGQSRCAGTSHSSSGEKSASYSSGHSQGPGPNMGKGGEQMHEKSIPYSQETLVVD
# NTR2 = conditions: compared with hit 8; cited from earlier work
# [1] = Human liver microsomal stability; type: in vitro ADME; conditions: for CLint scaled at 2 h, 1 µM: human, microsomes, pH 7.4
# [2] = molecular target: T2, human angiotensin II receptor, type I (Homo sapiens, UniProt P30556); conditions: cited from earlier work
# T2 sequence (P30556 1-359): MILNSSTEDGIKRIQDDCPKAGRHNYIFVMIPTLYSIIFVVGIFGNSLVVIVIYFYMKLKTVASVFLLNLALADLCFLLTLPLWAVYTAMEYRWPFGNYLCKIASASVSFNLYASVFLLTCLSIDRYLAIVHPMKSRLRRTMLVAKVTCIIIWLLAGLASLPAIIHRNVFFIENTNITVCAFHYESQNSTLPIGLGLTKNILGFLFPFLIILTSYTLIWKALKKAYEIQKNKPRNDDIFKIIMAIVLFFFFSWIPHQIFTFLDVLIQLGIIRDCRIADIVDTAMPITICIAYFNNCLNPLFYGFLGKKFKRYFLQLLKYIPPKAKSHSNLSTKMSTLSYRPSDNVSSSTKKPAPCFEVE
# apelin receptor = conditions: cited from earlier work
# [3] = cited from earlier work
# [4] = test system: 5-HT1A, α2C adrenergic, mu-opioid, benzylpiperazine receptors and norepinephrine transporter; conditions: cited from earlier work
# [5] = cited from earlier work; remark: listed apart in the source
structure (smiles),measurement,setting,value
"COc1cccc(OC)c1-c1cc(C(=O)N[C@@H](CCC2CCCCC2)CC(=O)O)nn1C1CCCCCCC1 [Compound 16, (S)-5-Cyclohexyl-3-(1-cyclooctyl-5-(2,6-dimethoxyphenyl)-1H-pyrazole-3-carboxamido)pentanoic acid]",Activity in cAMP assay,hAPJ,completely inactive
"COc1cccc(OC)c1-c1cc(C(=O)N[C@@H](CCC2CCCCC2)CC(=O)O)nn1-c1ccc(F)cc1 [Compound 9, (S)-5-cyclohexyl-3-(5-(2,6-dimethoxyphenyl)-1-(4-fluorophenyl)-1H-pyrazole-3-carboxamido)pentanoic acid]",Off-target NTR2 activity,NTR2,significantly reduced
same,Stability in human liver microsomes,[1],excellent stability
same,"CLint scaled at 2 h, 1 µM",[1],5 mL/min/kg
same,"Activity at AT1 receptor, previously reported",[2],did not activate or inhibit
"COc1cccc(OC)c1-c1cc(C(=O)N[C@@H](CCC2CCCCC2)CC(=O)O)nn1CC1CCCCC1 [Compound 15, (S)-5-Cyclohexyl-3-(1-(cyclohexylmethyl)-5-(2,6-dimethoxyphenyl)-1H-pyrazole-3-carboxamido)pentanoic acid]",Activity in cAMP assay,hAPJ,completely inactive
CCOc1ccc2c(C)cc(=O)oc2c1 [7-ethoxy-4-methylcoumarin],"CLint scaled at 2 h, 1 µM",[1],325 mL/min/kg
"CCC(CC)n1c(Cc2cccs2)nc2cc(C(=O)N[C@H](CC(=O)O)CC(C)C)ccc21 [CMF-019, (S)-5-Methyl-3-{1-(pentan-3-yl)-2-(thiophen-2-ylmethyl)-1H-benzo[d]imidazole5-carboxamido}hexanoic Acid]",Bias towards Gαi signaling over receptor internalization,apelin receptor,~ 6000 fold
same,Bias towards Gαi signaling over β-arrestin recruitment,apelin receptor,~ 400 fold
"CC1=CC(=O)C(C2CCCCC2)=C/C1=N\OS(=O)(=O)c1ccccc1 [ML233, (E)-2-cyclohexyl-5-methyl-4-(phenylsulfonyloxyimino)cyclohexa-2,5-dienone]",Solubility,[3],poor solubility
same,Off-target binding,[4],significant off-target binding
same,Stability in microsomal fractions,[5],poor
